Experimental data as given in article PMC8213057, “Targeting ALK2: An Open Science Approach to Developing Therapeutics for the Treatment of Diffuse Intrinsic Pontine Glioma” (Journal of Medicinal Chemistry, 2020).
“And” between values parts separate entries of the source, which are not always exact repeats. Equal entries are not always repeated.

Legend:
CYP2C9 = target: T1, CYP2C9 (Homo sapiens, UniProt P11712); assay: CYP inhibition assay; format: in vitro ADME; conditions: human liver microsomes
T1 construct: tissue Corning 452117; host or cells: pooled human liver microsomes (UltraPool HLM 150, mixed gender)

CTK/MATK = target: T2, CTK/MATK (Homo sapiens, UniProt P42679); conditions: 1 μM; Run 1, Run 2
T2 sequence (P42679 1-507): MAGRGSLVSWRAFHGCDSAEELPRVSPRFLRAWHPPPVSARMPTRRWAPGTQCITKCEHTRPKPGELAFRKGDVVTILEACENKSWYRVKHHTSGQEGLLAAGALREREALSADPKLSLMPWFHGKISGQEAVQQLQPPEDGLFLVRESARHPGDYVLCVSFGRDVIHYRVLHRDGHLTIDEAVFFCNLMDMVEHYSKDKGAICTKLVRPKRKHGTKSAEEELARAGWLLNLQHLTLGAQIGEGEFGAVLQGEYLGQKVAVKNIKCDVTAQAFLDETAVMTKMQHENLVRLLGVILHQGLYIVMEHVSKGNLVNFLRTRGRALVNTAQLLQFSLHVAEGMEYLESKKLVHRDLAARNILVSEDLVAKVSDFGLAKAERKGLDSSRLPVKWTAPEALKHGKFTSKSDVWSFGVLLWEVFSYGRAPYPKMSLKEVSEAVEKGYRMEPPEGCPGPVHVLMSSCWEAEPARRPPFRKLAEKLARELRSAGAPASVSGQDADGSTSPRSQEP

IGF1R [1] = target: T3, IGF1R (Homo sapiens, UniProt P08069); conditions: 1 μM; Run 1, Run 2
MAPKAPK2 = MAPKAPK2 (Homo sapiens, UniProt P49137); conditions: 1 μM; Run 1, Run 2
TBK1 = target: T4, TBK1 (Homo sapiens, UniProt Q9UHD2); conditions: 1 μM; Run 1, Run 2
T4 sequence (Q9UHD2 1-729): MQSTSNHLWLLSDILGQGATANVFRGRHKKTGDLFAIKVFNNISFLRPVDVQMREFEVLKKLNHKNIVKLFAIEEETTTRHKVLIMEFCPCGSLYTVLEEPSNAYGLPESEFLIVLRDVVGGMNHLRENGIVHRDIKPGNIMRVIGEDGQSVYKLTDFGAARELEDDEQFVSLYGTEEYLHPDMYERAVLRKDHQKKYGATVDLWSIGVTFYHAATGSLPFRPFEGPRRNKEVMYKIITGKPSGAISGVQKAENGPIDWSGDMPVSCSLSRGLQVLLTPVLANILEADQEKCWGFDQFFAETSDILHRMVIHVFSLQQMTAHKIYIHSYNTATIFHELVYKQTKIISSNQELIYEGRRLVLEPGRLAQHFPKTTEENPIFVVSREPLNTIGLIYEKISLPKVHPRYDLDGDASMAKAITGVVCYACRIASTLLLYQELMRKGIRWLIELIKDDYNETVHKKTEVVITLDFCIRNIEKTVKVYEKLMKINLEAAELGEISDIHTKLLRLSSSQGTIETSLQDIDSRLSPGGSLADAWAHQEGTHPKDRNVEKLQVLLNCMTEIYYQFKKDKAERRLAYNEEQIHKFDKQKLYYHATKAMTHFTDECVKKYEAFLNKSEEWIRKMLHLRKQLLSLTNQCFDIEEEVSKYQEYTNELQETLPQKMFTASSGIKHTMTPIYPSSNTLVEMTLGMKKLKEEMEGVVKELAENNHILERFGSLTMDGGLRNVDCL

WEE1 = WEE1 (Homo sapiens, UniProt P30291); conditions: 1 μM; Run 1, Run 2
CDK4/cyclin D1 = CDK4/cyclin D1 (Homo sapiens, UniProt P11802); assay: biochemical; conditions: read-out: % enzyme activity, 1 μM; Run 1, Run 2
IGF1R [2] = target: T3, IGF1R; assay: biochemical; conditions: read-out: % enzyme activity, 1 μM; Run 1, Run 2
LATS1 = target: T5, LATS1 (Homo sapiens, UniProt O95835); assay: biochemical; conditions: read-out: % enzyme activity, 1 μM; Run 1, Run 2
T5 sequence (O95835 1-1130): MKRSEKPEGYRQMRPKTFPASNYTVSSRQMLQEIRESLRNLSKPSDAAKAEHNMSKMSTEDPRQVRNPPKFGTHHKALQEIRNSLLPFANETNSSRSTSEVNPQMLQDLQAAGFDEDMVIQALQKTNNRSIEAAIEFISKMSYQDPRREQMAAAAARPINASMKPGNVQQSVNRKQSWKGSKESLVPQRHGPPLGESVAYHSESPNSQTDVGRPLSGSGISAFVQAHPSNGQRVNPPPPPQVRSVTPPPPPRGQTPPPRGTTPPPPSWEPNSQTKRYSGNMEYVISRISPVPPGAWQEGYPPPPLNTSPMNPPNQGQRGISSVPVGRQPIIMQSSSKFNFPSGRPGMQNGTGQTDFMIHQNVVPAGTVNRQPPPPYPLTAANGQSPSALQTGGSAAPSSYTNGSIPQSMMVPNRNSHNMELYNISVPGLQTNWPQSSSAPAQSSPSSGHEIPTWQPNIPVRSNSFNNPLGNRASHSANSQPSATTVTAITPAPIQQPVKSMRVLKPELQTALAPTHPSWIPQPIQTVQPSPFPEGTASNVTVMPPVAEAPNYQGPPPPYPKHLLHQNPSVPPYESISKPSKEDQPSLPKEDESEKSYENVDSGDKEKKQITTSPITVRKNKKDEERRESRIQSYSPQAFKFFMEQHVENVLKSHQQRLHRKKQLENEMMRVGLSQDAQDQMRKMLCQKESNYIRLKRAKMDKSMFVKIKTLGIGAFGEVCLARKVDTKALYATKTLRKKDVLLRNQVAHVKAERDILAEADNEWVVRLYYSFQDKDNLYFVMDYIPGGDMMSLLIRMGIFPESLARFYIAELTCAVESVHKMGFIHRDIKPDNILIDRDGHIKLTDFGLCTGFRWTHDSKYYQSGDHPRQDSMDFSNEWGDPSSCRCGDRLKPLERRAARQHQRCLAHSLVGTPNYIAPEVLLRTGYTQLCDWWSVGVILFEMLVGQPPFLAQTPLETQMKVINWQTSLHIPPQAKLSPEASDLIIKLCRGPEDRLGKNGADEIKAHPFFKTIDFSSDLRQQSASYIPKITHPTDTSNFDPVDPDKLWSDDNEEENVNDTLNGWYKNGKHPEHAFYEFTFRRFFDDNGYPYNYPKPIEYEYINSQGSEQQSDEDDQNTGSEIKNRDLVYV

RET = RET (Homo sapiens, UniProt P07949); assay: biochemical; conditions: read-out: % enzyme activity, 1 μM; Run 1, Run 2
Chain of RET (P07949 29-1114): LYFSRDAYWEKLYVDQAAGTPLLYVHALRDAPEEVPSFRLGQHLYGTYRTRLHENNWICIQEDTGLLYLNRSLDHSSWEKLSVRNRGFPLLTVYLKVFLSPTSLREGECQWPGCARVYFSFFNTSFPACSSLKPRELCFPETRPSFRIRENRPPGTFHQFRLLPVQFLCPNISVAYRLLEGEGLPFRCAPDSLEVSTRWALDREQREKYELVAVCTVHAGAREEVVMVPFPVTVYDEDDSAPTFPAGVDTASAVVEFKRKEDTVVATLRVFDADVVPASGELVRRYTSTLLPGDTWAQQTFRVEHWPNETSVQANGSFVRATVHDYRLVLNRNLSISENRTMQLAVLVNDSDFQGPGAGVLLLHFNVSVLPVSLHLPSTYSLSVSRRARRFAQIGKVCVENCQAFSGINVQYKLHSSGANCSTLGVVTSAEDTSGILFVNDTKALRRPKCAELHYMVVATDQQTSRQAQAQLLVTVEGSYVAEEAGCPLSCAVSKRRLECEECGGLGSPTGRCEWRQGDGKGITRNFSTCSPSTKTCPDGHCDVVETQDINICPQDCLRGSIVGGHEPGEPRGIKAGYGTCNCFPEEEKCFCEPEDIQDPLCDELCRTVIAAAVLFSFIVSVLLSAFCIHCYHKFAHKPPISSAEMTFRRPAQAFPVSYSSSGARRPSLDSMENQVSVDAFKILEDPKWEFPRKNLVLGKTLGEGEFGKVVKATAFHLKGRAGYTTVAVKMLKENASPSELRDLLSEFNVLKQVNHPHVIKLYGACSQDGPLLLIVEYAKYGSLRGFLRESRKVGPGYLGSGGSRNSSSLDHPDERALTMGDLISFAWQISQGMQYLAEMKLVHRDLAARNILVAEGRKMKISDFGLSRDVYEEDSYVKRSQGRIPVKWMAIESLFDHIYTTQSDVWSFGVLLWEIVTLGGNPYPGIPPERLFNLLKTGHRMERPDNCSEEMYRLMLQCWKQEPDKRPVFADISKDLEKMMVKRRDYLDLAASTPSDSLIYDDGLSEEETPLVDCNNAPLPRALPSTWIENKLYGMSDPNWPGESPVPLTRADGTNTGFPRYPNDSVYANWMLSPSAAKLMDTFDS

T3 sequence (P08069 31-1367): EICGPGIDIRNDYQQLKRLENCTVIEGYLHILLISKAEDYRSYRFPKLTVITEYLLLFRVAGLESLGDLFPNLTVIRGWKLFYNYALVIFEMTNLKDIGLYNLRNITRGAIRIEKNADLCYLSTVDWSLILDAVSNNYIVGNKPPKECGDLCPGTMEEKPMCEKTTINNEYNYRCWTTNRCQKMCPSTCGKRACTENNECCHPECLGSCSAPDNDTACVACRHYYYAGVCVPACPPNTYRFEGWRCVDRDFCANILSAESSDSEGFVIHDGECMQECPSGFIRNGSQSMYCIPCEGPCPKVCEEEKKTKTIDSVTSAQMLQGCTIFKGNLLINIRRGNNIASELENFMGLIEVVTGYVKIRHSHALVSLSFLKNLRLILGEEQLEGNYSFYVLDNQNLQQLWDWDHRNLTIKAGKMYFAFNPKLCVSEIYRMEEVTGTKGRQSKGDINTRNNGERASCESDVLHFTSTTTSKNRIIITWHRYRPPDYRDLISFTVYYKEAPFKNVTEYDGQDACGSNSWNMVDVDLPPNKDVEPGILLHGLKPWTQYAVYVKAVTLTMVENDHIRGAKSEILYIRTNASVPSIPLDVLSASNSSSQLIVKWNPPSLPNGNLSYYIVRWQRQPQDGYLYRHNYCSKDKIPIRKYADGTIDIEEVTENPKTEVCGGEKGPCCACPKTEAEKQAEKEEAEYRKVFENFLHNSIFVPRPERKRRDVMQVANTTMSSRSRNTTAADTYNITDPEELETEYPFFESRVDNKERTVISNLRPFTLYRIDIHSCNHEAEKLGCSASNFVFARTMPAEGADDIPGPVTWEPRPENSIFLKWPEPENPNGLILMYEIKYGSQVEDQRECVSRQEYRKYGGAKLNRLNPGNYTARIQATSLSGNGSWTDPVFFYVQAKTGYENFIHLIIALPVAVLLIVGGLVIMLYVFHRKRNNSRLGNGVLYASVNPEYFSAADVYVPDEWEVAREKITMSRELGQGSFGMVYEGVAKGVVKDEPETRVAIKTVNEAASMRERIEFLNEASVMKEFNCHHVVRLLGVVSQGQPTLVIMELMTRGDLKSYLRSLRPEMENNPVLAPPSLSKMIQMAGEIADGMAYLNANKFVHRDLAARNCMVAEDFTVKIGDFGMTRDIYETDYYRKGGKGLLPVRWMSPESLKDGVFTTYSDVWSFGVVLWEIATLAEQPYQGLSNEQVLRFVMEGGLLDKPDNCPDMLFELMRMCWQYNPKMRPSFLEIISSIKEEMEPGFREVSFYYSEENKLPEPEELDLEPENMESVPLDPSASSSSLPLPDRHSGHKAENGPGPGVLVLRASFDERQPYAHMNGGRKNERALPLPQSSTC
T1 sequence (P11712 whole entry): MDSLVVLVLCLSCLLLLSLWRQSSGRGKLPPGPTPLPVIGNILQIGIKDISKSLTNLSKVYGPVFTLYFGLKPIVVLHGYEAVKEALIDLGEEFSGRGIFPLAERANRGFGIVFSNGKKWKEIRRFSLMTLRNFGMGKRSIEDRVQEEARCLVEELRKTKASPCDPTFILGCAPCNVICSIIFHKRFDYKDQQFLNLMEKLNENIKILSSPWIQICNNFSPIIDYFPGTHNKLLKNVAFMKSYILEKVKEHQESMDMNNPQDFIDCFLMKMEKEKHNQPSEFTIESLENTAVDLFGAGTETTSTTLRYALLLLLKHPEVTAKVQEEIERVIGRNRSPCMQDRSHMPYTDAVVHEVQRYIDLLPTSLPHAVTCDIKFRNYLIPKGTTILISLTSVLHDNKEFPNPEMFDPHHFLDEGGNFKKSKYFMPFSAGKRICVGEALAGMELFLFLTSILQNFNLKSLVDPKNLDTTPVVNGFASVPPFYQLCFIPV
Chain of WEE1 (P30291 whole entry, species assumed): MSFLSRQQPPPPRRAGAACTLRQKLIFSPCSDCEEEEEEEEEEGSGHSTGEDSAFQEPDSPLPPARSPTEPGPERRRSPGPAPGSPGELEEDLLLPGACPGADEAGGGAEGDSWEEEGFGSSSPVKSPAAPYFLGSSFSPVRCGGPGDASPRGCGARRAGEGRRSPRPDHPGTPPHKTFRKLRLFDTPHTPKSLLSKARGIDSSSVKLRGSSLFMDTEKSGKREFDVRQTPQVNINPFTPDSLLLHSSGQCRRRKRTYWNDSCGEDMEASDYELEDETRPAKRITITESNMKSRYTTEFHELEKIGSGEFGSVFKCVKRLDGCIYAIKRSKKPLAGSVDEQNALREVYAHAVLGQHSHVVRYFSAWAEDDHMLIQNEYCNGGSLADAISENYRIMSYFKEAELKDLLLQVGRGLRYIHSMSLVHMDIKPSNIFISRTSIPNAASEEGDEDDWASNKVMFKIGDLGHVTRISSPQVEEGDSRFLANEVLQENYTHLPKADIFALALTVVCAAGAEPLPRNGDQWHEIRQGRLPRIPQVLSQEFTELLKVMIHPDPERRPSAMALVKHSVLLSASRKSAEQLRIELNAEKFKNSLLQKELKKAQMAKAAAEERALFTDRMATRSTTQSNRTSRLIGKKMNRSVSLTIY
Chain of MAPKAPK2 (P49137 whole entry): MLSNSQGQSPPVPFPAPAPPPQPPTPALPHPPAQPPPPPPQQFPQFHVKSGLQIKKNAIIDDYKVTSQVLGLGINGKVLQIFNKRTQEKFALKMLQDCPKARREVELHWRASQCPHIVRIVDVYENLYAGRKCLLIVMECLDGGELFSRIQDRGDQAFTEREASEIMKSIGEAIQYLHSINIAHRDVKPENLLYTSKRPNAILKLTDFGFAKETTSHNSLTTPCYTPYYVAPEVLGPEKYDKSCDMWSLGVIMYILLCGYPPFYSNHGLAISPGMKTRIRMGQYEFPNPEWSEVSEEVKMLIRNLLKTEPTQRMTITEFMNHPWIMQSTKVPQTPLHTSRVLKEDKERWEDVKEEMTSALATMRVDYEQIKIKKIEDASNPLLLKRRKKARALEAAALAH
Chain of CDK4/cyclin D1 (P11802 whole entry): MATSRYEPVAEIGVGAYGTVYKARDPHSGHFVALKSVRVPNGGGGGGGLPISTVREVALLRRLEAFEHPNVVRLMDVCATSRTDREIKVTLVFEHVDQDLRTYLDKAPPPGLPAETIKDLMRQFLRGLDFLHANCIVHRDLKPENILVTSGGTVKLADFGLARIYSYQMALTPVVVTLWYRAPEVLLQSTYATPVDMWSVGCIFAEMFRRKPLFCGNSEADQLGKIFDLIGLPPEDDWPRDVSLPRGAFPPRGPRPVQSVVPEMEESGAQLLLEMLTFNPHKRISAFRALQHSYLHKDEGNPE
Chain of CDK4/cyclin D1 (P24385 whole entry partner): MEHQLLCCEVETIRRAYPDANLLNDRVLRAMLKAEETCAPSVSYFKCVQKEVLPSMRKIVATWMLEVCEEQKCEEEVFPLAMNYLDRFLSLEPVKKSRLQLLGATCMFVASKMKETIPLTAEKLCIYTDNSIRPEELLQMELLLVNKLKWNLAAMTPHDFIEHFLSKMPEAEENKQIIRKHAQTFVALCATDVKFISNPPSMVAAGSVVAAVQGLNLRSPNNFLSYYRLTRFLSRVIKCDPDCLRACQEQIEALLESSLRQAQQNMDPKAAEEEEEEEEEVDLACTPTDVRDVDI

| Structure (SMILES) | % enzyme activity at 1 μM (TNIK) | IC50 (CYP2C9) [µM] | % enzyme activity (CTK/MATK) [%] | % enzyme activity (IGF1R [1]) [%] | % enzyme activity (MAPKAPK2) [%] | % enzyme activity (TBK1) [%] | % enzyme activity (WEE1) [%] | remaining activity at 1 µM (CDK4/cyclin D1) [%] | remaining activity at 1 µM (IGF1R [2]) [%] | remaining activity at 1 µM (LATS1) [%] | remaining activity at 1 µM (RET) [%] |
| --- | --- | --- | --- | --- | --- | --- | --- | --- | --- | --- | --- |
| COc1cc(-c2cncc(-c3ccc(N4CCN(C)CC4)cc3)c2C)cc(F)c1C(N)=O [Compound 26a, 2-Fluoro-6-methoxy-4-(4-methyl-5-(4-(4-methylpiperazin-1-yl)phenyl)pyridin-3-yl)benzamide] | -0.77% and -2.62% | > 50 | 94.85 | 98.31 | 101.22 | 92.56 | 104.15 | 99.4 | 99.2 | 97.4 | 94.4 |
| COc1cc(-c2cncc(-c3ccc(N4C[C@@H](C)N(C)[C@@H](C)C4)cc3)c2C)cc(F)c1C(N)=O [Compound 26c, 2-Fluoro-6-methoxy-4-(4-methyl-5-(4-((3R,5S)-3,4,5-trimethylpiperazin-1-yl)phenyl)pyridin-3-yl)benzamide] | 4.85% and 3.92% | > 50 | 98.62 | 94.80 | 93.08 | 85.62 | 99.73 | 100 | 96.1 | 102 | 96 |
